Data published in the NIST ThermoML archive (doi:10.1016/j.fluid.2006.05.014).

Assay: xn = mol fraction of the nth substance listed
Conditions: Liquid, dividing mass by volume

CCCCCCCC [octane] + O=C=O
Conditions	mass density [kg/m3]
313.2 K, x2 = 0.11	730
313.2 K, x2 = 0.2134	729
313.2 K, x2 = 0.3377	729.3
313.2 K, x2 = 0.4342	711.9
313.2 K, x2 = 0.5534	692.7
313.2 K, x2 = 0.6752	663.5
313.2 K, x2 = 0.752	644.6
313.2 K, x2 = 0.8581	585
313.2 K, x2 = 0.9447	462.3
333.2 K, x2 = 0.1573	683.6
333.2 K, x2 = 0.206	678.5
333.2 K, x2 = 0.2891	670.1
333.2 K, x2 = 0.3593	660.5
333.2 K, x2 = 0.4296	657.3
333.2 K, x2 = 0.4956	641.9
333.2 K, x2 = 0.5915	627.8
333.2 K, x2 = 0.7413	556.8
333.2 K, x2 = 0.8558	516.5
333.2 K, x2 = 0.9383	436.1
353.2 K, x2 = 0.1452	658.6
353.2 K, x2 = 0.2452	651.5
353.2 K, x2 = 0.3596	642.5
353.2 K, x2 = 0.4373	635.4
353.2 K, x2 = 0.4948	621.3
353.2 K, x2 = 0.5783	614.8
353.2 K, x2 = 0.6237	600.1
353.2 K, x2 = 0.7761	585.8
353.2 K, x2 = 0.8255	560
353.2 K, x2 = 0.9154	458.2
373.2 K, x2 = 0.2172	550.7
373.2 K, x2 = 0.369	565.2
373.2 K, x2 = 0.5134	584.2
373.2 K, x2 = 0.5706	592.6
373.2 K, x2 = 0.6538	591.7
373.2 K, x2 = 0.7837	565.8
373.2 K, x2 = 0.8522	516.3
373.2 K, x2 = 0.902	425.1
393.2 K, x2 = 0.156	510.3
393.2 K, x2 = 0.2689	525.1
393.2 K, x2 = 0.3933	531.4
393.2 K, x2 = 0.4582	537.8
393.2 K, x2 = 0.522	544.7
393.2 K, x2 = 0.5922	546.8
393.2 K, x2 = 0.6738	551.1
393.2 K, x2 = 0.7464	553.2
393.2 K, x2 = 0.8146	519.8
393.2 K, x2 = 0.8728	400.2
